Where two headings read alike, the source gives them in different places.
Key:
THP-1 (AML) cells = assay: LSD1 CD11b cellular assay (flow cytometry); format: cell-based; conditions: Homo sapiens, 96 h; CD11b expression in THP-1 (AML) cells, flow cytometry, 4 days incubation; read-out: Cellular IC50
How it was run: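 THP-1 AML cells treated with serially diluted compound (0.2% DMSO final) for 4 days at 37 °C, 5% CO2. CD11b expression measured by flow cytometry with DAPI staining; IC50 derived from percent CD11b-positive cells versus inhibitor concentration.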

full-length human LSD1 = full-length human LSD1 (Homo sapiens (Human), UniProt O60341); assay: In vitro enzyme inhibition assay LSD-1 (TR-FRET); format: biochemical
Description: This assay determines the ability of a test compound to inhibit LSD1 demethylase activity.
The enzymatic assay of LSD1 activity is based on Time Resolved-Fluorescence Resonance Energy Transfer (TR-FRET) detection.
The ability of the compounds disclosed herein to inhibit LSD1 activity was quantified and the respective IC50 value was determined. Table 5 provides the IC50 values of various substituted heterocyclic compounds disclosed herein.

[1] = TR-FRET, 0.1 nM LSD1, 50 nM H3K4me1-biotin peptide, 2 μM FAD, pH7.3, read-out: LSD1 IC50

SMILES	IC50 (THP-1 (AML) cells) [µM]	IC50 (full-length human LSD1; [1]) [µM]	IC50 (full-length human LSD1) [µM]
COc1ccc(-c2nc3ccn(C[C@H]4CCNC4)c3cc2-c2ccc(C#N)c(F)c2)cc1 [Example 54]	< 0.1	< 0.1	
Cn1cc2cc(-c3cnc(N4CCC(N)CC4)nc3-c3ccc(C#N)cc3)ncc2n1 [Example 73, 4-[2-(4-aminopiperidin-1-yl)-5-(2-methylpyrazolo[3,4-c]pyridin-5-yl)pyrimidin-4-yl]benzonitrile]	0.1 to 1	< 0.1	
N#Cc1ccc(-c2nc(NC[C@H]3CCNC3)ncc2-c2ccc(C(F)(F)F)cc2)cc1 [Example 25, 4-(2-{[(3S)-pyrrolidin-3-ylmethyl]amino}-5-[4-(trifluoromethyl)phenyl]pyrimidin-4-yl)benzonitrile]	0.1 to 1	< 0.1	
Cn1cnc2cc(-c3cnc(N4CCC(N)CC4)nc3-c3ccc(C#N)cc3)cnc21 [Example 66, 4-[2-(4-aminopiperidin-1-yl)-5-(3-methylimidazo[4,5-b]pyridin-6-yl)pyrimidin-4-yl]benzonitrile]	< 0.1	< 0.1	
N#Cc1ccc(-c2nc(NC[C@H]3CCNC3)ncc2-c2ccc(F)cc2)cc1 [Example 18, 4-[5-(4-fluorophenyl)-2-{[(3S)-pyrrolidin-3-ylmethyl]amino}pyrimidin-4-yl]benzonitrile]	0.1 to 1	< 0.1	
Cc1ccc(-c2nc3ccn(CC4(F)CCNC4)c3cc2-c2ccc(C#N)cc2)cc1 (stereo not drawn) [Example 9, 4-[1-[(3-fluoropyrrolidin-3-yl)methyl]-5-(4-methylphenyl)pyrrolo[3,2-b]pyridin-6-yl]benzonitrile]	0.1 to 1		< 0.1
Cc1ccc(-c2cnc(OC[C@@H]3CCNC3)nc2-c2ccc(C#N)cc2)cc1 [Example 20, 4-[5-(4-methylphenyl)-2-[(3R)-pyrrolidin-3-ylmethoxy]pyrimidin-4-yl]benzonitrile]	0.1 to 1	< 0.1	
Cn1ncc2cc(-c3cnc(N4CCC5CNCC5CC4)nc3-c3ccc(C#N)cc3)cnc21 (stereo not drawn) [Example 65, 4-[2-(2,3,3a,4,5,7,8,8a-octahydro-1H-pyrrolo[3,4-d]azepin-6-yl)-5-(1-methylpyrazolo[3,4-b]pyridin-5-yl)pyrimidin-4-yl]benzonitrile]	< 0.1	< 0.1	
N#Cc1ccc(-c2cc3c(ccn3C[C@H]3CCNC3)nc2N2CCOCC2)cc1 [Example 7, 4-[5-morpholin-4-yl-1-[[(3S)-pyrrolidin-3-yl]methyl]pyrrolo[3,2-b]pyridin-6-yl]benzonitrile]	0.1 to 1	< 0.1	
Cc1ccc(-c2cc(NCC3CCNCC3)nn2-c2ccc(C#N)cc2)cc1 [Example 46, 4-[5-(4-methylphenyl)-3-(piperidin-4-ylmethylamino)pyrazol-1-yl]benzonitrile]	0.1 to 1	< 0.1	
N#Cc1ccc(-c2nc(N3CCC(N)CC3)ncc2-c2cnn(C3CCOC3)c2)cc1 (stereo not drawn) [Example 71, 4-[2-(4-aminopiperidin-1-yl)-5-[1-(oxolan-3-yl)pyrazol-4-yl]pyrimidin-4-yl]benzonitrile]	0.1 to 1	< 0.1	

The next lines start with results.

IC50 (THP-1 (AML) cells) [µM]	IC50 (full-length human LSD1; [1]) [µM]	SMILES	IC50 (full-length human LSD1) [µM]
< 0.1	< 0.1	N#Cc1ccc(-c2nc(N3CCC4CNCC4CC3)ncc2-c2ccc3cn[nH]c3c2)cc1 (stereo not drawn) [Example 117, 4-[2-(2,3,3a,4,5,7,8,8a-octahydro-1H-pyrrolo[3,4-d]azepin-6-yl)-5-(1H-indazol-6-yl)pyrimidin-4-yl]benzonitrile]	
< 0.1	< 0.1	Cn1cc2cc(-c3cnc(N4CCC(N)C(F)C4)nc3-c3ccc(C#N)c(F)c3)ccc2n1 (stereo not drawn) [Example 112, 4-[2-(4-amino-3-fluoropiperidin-1-yl)-5-(2-methylindazol-5-yl)pyrimidin-4-yl]-2-fluorobenzonitrile]	
< 0.1	< 0.1	COc1nc(N2CCC(N)CC2)nc(-c2ccc(C#N)c(F)c2)c1-c1ccc2nn(C)cc2c1 [Example 147, 4-[2-(4-aminopiperidin-1-yl)-6-methoxy-5-(2-methyl-2H-indazol-5-yl)pyrimidin-4-yl]-2-fluorobenzonitrile]	
< 0.1	< 0.1	Cn1cnc2cc(-c3cnc(N4CCC(N)CC4)nc3-c3ccc(C#N)c(F)c3)ccc21 [Example 87, 4-[2-(4-aminopiperidin-1-yl)-5-(1-methylbenzimidazol-5-yl)pyrimidin-4-yl]-2-fluorobenzonitrile]	
0.1 to 1	< 0.1	Cc1ccc(-c2cnc(N3CCC4(CC3)CNC4)nc2-c2ccc(C#N)cc2)cc1 [Example 113, 4-[2-(2,7-diazaspiro[3.5]nonan-7-yl)-5-(4-methylphenyl)pyrimidin-4-yl]benzonitrile]	
< 0.1	< 0.1	Cn1cnc2cc(-c3cnc(N4CCC(N)CC4)nc3-c3ccc(C#N)cc3)c(F)c(F)c21 [Example 126, 4-[2-(4-aminopiperidin-1-yl)-5-(6,7-difluoro-1-methylbenzimidazol-5-yl)pyrimidin-4-yl]benzonitrile]	
< 0.1	< 0.1	Cn1cc2ccc(-c3cnc(N4CCC(N)CC4)nc3-c3ccc(C#N)cc3)cc2n1 [Example 129, 4-[2-(4-aminopiperidin-1-yl)-5-(2-methylindazol-6-yl)pyrimidin-4-yl]benzonitrile]	
< 0.1	< 0.1	CNC1CCN(c2ncc(-c3cnn(CC(F)(F)F)c3)c(-c3ccc(C#N)c(F)c3)n2)CC1 [Example 89, 2-fluoro-4-[2-[4-(methylamino)piperidin-1-yl]-5-[1-(2,2,2-trifluoroethyl)pyrazol-4-yl]pyrimidin-4-yl]benzonitrile]	
< 0.1	< 0.1	COc1ccc(-c2cnc(N3CCC(N)CC3)nc2-c2ccc(C#N)cc2)cc1 [Example 83, 4-[2-(4-aminopiperidin-1-yl)-5-(4-methoxyphenyl)pyrimidin-4-yl]benzonitrile]	
< 0.1	< 0.1	Cn1cnc2cc(-c3cnc(N4CCC5CNCC5CC4)nc3-c3ccc(C#N)cc3)c(F)c(F)c21 (stereo not drawn) [Example 130]	
< 0.1	< 0.1	N#Cc1ccc(-c2nc(N3CCC4CNCC4CC3)ncc2-c2ccc3scnc3c2)cc1 (stereo not drawn) [Example 146, 4-[2-(2,3,3a,4,5,7,8,8a-octahydro-1H-pyrrolo[3,4-d]azepin-6-yl)-5-(1,3-benzothiazol-5-yl)pyrimidin-4-yl]benzonitrile]	
< 0.1	< 0.1	COc1nc(N2CCCNCC2)nc(-c2ccc(C#N)c(F)c2)c1-c1ccc2nn(C)cc2c1 [Example 148, 4-[2-(1,4-diazepan-1-yl)-6-methoxy-5-(2-methyl-2H-indazol-5-yl)pyrimidin-4-yl]-2-fluorobenzonitrile]	
0.1 to 1	< 0.1	Cn1cc2cc(-c3cnc(N4CCNCC4)nc3-c3ccc(C#N)c(F)c3)ccc2n1 [Example 109, 2-fluoro-4-[5-(2-methylindazol-5-yl)-2-piperazin-1-ylpyrimidin-4-yl]benzonitrile]	
< 0.1	< 0.1	Cn1nnc2cc(-c3cnc(N4CCC(N)CC4)nc3-c3ccc(C#N)c(F)c3)c(F)cc21 [Example 105, 4-[2-(4-aminopiperidin-1-yl)-5-(6-fluoro-1-methylbenzotriazol-5-yl)pyrimidin-4-yl]-2-fluorobenzonitrile]	
< 0.1	< 0.1	Cn1nnc2cc(-c3cnc(N4CCC(N)CC4)nc3-c3ccc(C#N)c(F)c3)ccc21 [Example 96, 4-[2-(4-aminopiperidin-1-yl)-5-(1-methylbenzotriazol-5-yl)pyrimidin-4-yl]-2-fluorobenzonitrile]	
< 0.1	< 0.1	N#Cc1ccc(-c2nc(N3CCC(N)CC3)ncc2C#CC2(O)CCOC2)cc1F (stereo not drawn) [Example 94, 4-[2-(4-aminopiperidin-1-yl)-5-[2-(3-hydroxyoxolan-3-yl)ethynyl]pyrimidin-4-yl]-2-fluorobenzonitrile]	

Source: patent US10131664B2 (Celgene Quanticel Research, Inc., priority 2013, dated 2018)
